Among the data in ChEMBL document CHEMBL2385000, “Design, synthesis and biological evaluation of indeno[1,2-d]thiazole derivatives as potent histone deacetylase inhibitors” (Bioorg Med Chem Lett, 2013) are inhibition, GI50 and IC50 values, retold here.

Assay [1] has as its target T1, Histone deacetylase (Homo sapiens) (UniProt Q13547+O15379+Q9UBN7+Q92769+Q9UQL6+Q8WUI4+Q9BY41+Q96DB2+P56524+Q9UKV0+Q969S8). Particulars: HeLa, at 1 µM.
Description: Inhibition of HDAC in human HeLa cells using Fluor de Lys as substrate at 1 uM by fluorescence assay
Assay [2] has as its target T1, Histone deacetylase (Homo sapiens). Particulars: HeLa, at 10 µM.
Description: Inhibition of HDAC in human HeLa cells using Fluor de Lys as substrate at 10 uM by fluorescence assay
Another assay relates to HCT-116. As to the kind of experiment: Cytotoxicity against human HCT116 cells after 48 hrs by Sulforhodamine B assay. In kind it is functional.
The subject of a further assay is MCF7. As to the kind of experiment: Cytotoxicity against human MCF7 cells after 48 hrs by Sulforhodamine B assay. Format: functional. Background: Sulforhodamine B stains cellular protein and so reports cell mass.
Another assay concerns the target Histone deacetylase. As to the kind of experiment: Inhibition of HDAC in human HeLa cells using Fluor de Lys as substrate by fluorescence assay. In kind it is cell-based.

Each structure is given as a SMILES string.

`O=C(/C=C/c1ccc2c(c1)Cc1sc(Nc3ccccc3)nc1-2)NO`: the inhibition in assay [1] is 20.7%; in assay [2], 95.3%.
The like results for `COc1ccc(CNc2nc3c(s2)Cc2cc(/C=C/C(=O)NO)ccc2-3)cc1` were, in that order, 10.7% and 86.2%.
With `O=C(CCCCCCC(=O)Nc1ccccc1)NO` [VORINOSTAT], the GI50 was determined as 878 nM in the assay with HCT-116 and 689 nM in the assay on MCF7.
Take `O=C(/C=C/c1ccc2c(c1)Cc1sc(NC3CCCCC3)nc1-2)NO`: the figures for the inhibition in assay [1] and in assay [2] were 24.8% and 93.6%, respectively.
The molecule `COCCNc1nc2c(s1)Cc1cc(/C=C/C(=O)NO)ccc1-2` yielded an IC50 against Histone deacetylase of 140 nM. For the same molecule, the inhibition in assay [1] came out at 71.6%; in assay [2], 97.4%. In addition, the GI50 in the assay on HCT-116 (Homo sapiens, HCT-116, 48 h) turned out to be 535 nM; with MCF7 (Homo sapiens, MCF7, 48 h), 869 nM.
Consider `CCCNc1nc2c(s1)Cc1cc(/C=C/C(=O)NO)ccc1-2`, for which the inhibition in assay [1] amounted to 52.7%; in assay [2], 93.3%.
The corresponding values for `Cc1cc(C)c(Nc2nc3c(s2)Cc2cc(/C=C/C(=O)NO)ccc2-3)c(C)c1` are 28.1% and 90%.
Turning to `O=C(/C=C/c1ccc2c(c1)Cc1sc(Nc3ccc(Cl)cc3)nc1-2)NO`, the inhibition in assay [1] turned out to be 35.8%; in assay [2], 95.3%.
The like results for `Cc1ccc(Nc2nc3c(s2)Cc2cc(/C=C/C(=O)NO)ccc2-3)cc1` were, in that order, 7.71% and 95.9%.
For `COc1ccc(Nc2nc3c(s2)Cc2cc(/C=C/C(=O)NO)ccc2-3)cc1`, the inhibition worked out at 45.1% in assay [1] and 95.5% in assay [2].
On Histone deacetylase, `O=C(/C=C/c1ccc2c(c1)Cc1sc(NCCN3CCOCC3)nc1-2)NO` returned an IC50 of 164 nM. In addition, the inhibition in assay [1] came to 66.9%; in assay [2], 97.2%. In addition, the GI50 in the assay with HCT-116 (Homo sapiens, HCT-116, 48 h) worked out at 1320 nM; with MCF7 (Homo sapiens, MCF7, 48 h), 2060 nM.
In the case of `CC(C)(C)Nc1nc2c(s1)Cc1cc(/C=C/C(=O)NO)ccc1-2`, the results for the inhibition in assay [1] and in assay [2] were 39.8% and 95.3%, respectively.
The like results for `O=C(/C=C/c1ccc2c(c1)Cc1sc(Nc3ccccn3)nc1-2)NO` were, in that order, 25.5% and 77.7%.
Regarding `O=C(/C=C/c1ccc2c(c1)Cc1sc(Nc3ccc(F)cc3F)nc1-2)NO`, the inhibition in assay [1] was determined as 21.6%; in assay [2], 92.3%.
For `CNc1nc2c(s1)Cc1cc(/C=C/C(=O)NO)ccc1-2`, the GI50 came to 1860 nM with HCT-116 (Homo sapiens, HCT-116, 48 h) and 1390 nM in the assay with MCF7 (Homo sapiens, MCF7, 48 h).
Turning to `CN(C)c1nc2c(s1)Cc1cc(/C=C/C(=O)NO)ccc1-2`, on Histone deacetylase, the IC50 is 157 nM. The inhibition in assay [1] was 71.7%; in assay [2], 97%. Besides, the GI50 with HCT-116 (Homo sapiens, HCT-116, 48 h) stood at 1620 nM; in the assay with MCF7 (Homo sapiens, MCF7, 48 h), 1260 nM.
For `O=C(/C=C/c1ccc2c(c1)Cc1sc(Nc3cccc(C(F)(F)F)c3)nc1-2)NO`, the figures for the inhibition in assay [1] and in assay [2] were 22.9% and 86.3%, respectively.
For the molecule `O=C(/C=C/c1ccc2c(c1)Cc1sc(Nc3ccncc3)nc1-2)NO`, the inhibition in assay [1] was 10.2%; in assay [2], 93.9%.
Take `O=C(/C=C/c1ccc2c(c1)Cc1sc(Nc3cccnc3)nc1-2)NO`: the IC50 at Histone deacetylase was determined as 298 nM. In addition, the results for the inhibition in assay [1] and in assay [2] were 62% and 96.5%, respectively. The GI50 worked out at 2430 nM in the assay on HCT-116 (Homo sapiens, HCT-116, 48 h) and 1580 nM in the assay with MCF7 (Homo sapiens, MCF7, 48 h).
`CC(C)Nc1nc2c(s1)Cc1cc(/C=C/C(=O)NO)ccc1-2` showed an IC50 against Histone deacetylase of 214 nM. For the same molecule, the inhibition stood at 61.3% in assay [1] and 97.5% in assay [2]. Moreover, the GI50 in the assay with HCT-116 (Homo sapiens, HCT-116, 48 h) came out at 2100 nM; with MCF7 (Homo sapiens, MCF7, 48 h), 1210 nM.

In general, inhibition refers to how much of the control response was suppressed. A lower inhibition goes with little suppression. Broadly, the GI50 is the concentration giving 50% growth inhibition. A lower GI50 goes with greater sensitivity of the cells. As usually defined, the IC50 is the midpoint of a concentration-inhibition curve.
